This experiment has as its system neonatal cardiomyocytes. Nature of the experiment: Ang II-induced mitochondrial superoxide (Mitosox) in neonatal cardiomyocytes. It is filed as cell-based, mouse. To be noted: Angiotensin II 1 μM for 3 hours; peptide conjugates 1 nM or equimolar; NAC 0.5 mM. The protocol: Ventricles from mouse neonates younger than 72 hours will be dissected, minced, and enzymatically digested with Blendzyme 4 (45 mg/mL, Roche). After enzymatic digestion, cardiomyocytes will be enriched using differential pre-plating for 2 hours, and seeded on fibronectin-coated culture dishes for 24 hours in DMEM (Gibco) with 20% Fetal Bovine Seium (Sigma) and 25 μM Arabinosylcytosine (Sigma). Cardiomyocytes will be stimulated with Angiotensin II (1 μM) for 3 hours in serum-free DMEM containing 0.5% insulin transferrin-selenium (Sigma), 2 mM glutamine, and 1 mg/mL BSA. […] Samples will be analyzed using excitation/emission of 488/625 nm by flow cytometry. Flow data will be analyzed using FCS Express (De Novo Software, Los Angeles, Calif., U.S.A.), and presented as histogram distributions of Mitosox fluorescence intensity.

Molecules are shown by their SMILES.

This note sets out measurements from patent US20180354991A1, “THERAPEUTIC COMPOSITIONS INCLUDING GRAMICIDIN S PEPTIDYL CONJUGATES OR IMIDAZOLE-SUBSTITUTED FATTY ACIDS, VARIANTS THEREOF AND USES THEREOF” (Stealth Biotherapeutics Corp, priority 2015, published 2018).

Regarding `CC(=O)N[C@@H](CS)C(=O)O` [N-acetyl cysteine], the “Ang II-induced Mitosox fluorescence (mitochondrial ROS)” value is “not show any effect”.
